Data: patent US6573262B2, “Composition and antiviral activity of substituted indoleoxoacetic piperazine derivatives” (priority 2000, dated 2003)

System: HIV-1 single-round infectious reporter virus
Assay: microbe, parasite or virus in culture
Assay type: cell-based
Conditions: for EC50: Human immunodeficiency virus 1, HeLa-CD4/CCR5, 72 h, read-out: EC50 Group from Table 1; for inhibition at 10 µM: Human immunodeficiency virus 1, HeLa-CD4/CCR5, read-out: % Inhibition @ 10 uM

Row | SMILES | EC50 [nM] | inhibition at 10 µM [%]
1 | O=C(C(=O)N1CCN(C(=O)c2ccccc2)CC1)c1c[nH]c2c(-c3ncco3)ccc(F)c12 [Example 73] | < 1000 | > 98
2 | Cc1nc(-c2ccc(F)c3c(C(=O)C(=O)N4CCN(C(=O)c5ccccc5)CC4)c[nH]c23)no1 [Example 80] | < 1000 | > 98
3 | O=C(C(=O)N1CCN(C(=O)c2ccccc2)CC1)c1c[nH]c2c(-c3cccs3)ccc(F)c12 [Example 12] | < 1000 | > 98
4 | CC(C)(C)NC(=O)NNC(=O)c1ccc(F)c2c(C(=O)C(=O)N3CCN(C(=O)c4ccccc4)CC3)c[nH]c12 [Example 133] | < 1000 | 
5 | COc1ccc(-c2ccc(F)c3c(C(=O)C(=O)N4CCN(C(=O)c5ccccc5)CC4)c[nH]c23)cc1 [Example 4] | < 1000 | > 98
6 | CNC(=O)c1cccc2c(C(=O)C(=O)N3CCN(C(=O)c4ccccc4)C[C@H]3C)c[nH]c12 [Example 64] | < 1000 | > 98
7 | O=C(NS(=O)(=O)c1ccccc1)c1ccc(F)c2c(C(=O)C(=O)N3CCN(C(=O)c4ccccc4)CC3)c[nH]c12 [Example 40] | < 1000 | > 98
8 | CCN(CC)CCNC(=O)c1cccc2c(C(=O)C(=O)N3CCN(C(=O)c4ccccc4)C[C@H]3C)c[nH]c12 [Example 66] | < 1000 | 98
9 | CNC(=O)Cn1cnc(-c2ccc(F)c3c(C(=O)C(=O)N4CCN(C(=O)c5ccccc5)CC4)c[nH]c23)n1 [Example 145] | < 1000 | 
10 | COC(=O)c1c[nH]c(-c2ccc(F)c3c(C(=O)C(=O)N4CCN(C(=O)c5ccccc5)CC4)c[nH]c23)n1 [Example 146] | < 1000 | 
11 | CCNC(=O)c1cccc2c(C(=O)C(=O)N3CCN(C(=O)c4ccccc4)C[C@H]3C)c[nH]c12 [Example 67] | < 1000 | > 98
12 | CCCn1nnc(-c2ccc(F)c3c(C(=O)C(=O)N4CCN(C(=O)c5ccccc5)CC4)c[nH]c23)n1 [Example 24] | < 1000 | > 98
13 | CNc1nc(-c2ccc(F)c3c(C(=O)C(=O)N4CCN(C(=O)c5ccccc5)CC4)c[nH]c23)no1 [Example 157] | < 1000 | 
14 | C[C@@H]1CN(C(=O)c2ccccn2)CCN1C(=O)C(=O)c1c[nH]c2c(-c3noc(C(Cl)(Cl)Cl)n3)ccc(F)c12 [Example 187] | < 1000 | 
15 | COc1ccc(-c2cccnc2)c2[nH]cc(C(=O)C(=O)N3CCN(C(=O)c4ccccc4)CC3)c12 [Example 8] | < 1000 | > 98
16 | NNC(=O)c1ccc(F)c2c(C(=O)C(=O)N3CCN(C(=O)c4ccccc4)CC3)c[nH]c12 [Example 92] | < 1000 | 
17 | O=C(NC1=NCCS1)c1ccc(F)c2c(C(=O)C(=O)N3CCN(C(=O)c4ccccc4)CC3)c[nH]c12 [Example 36] | < 1000 | > 98
18 | CC(C)NC(=O)NNC(=O)c1ccc(F)c2c(C(=O)C(=O)N3CCN(C(=O)c4ccccc4)CC3)c[nH]c12 [Example 134] | < 1000 | 
19 | CC1CN(C(=O)C(=O)c2c[nH]c3c(-c4ncon4)ccc(F)c23)CCN1C(=O)c1ccccc1 (centres unmarked) [Example 123] | < 1000 | 
20 | CCCNC(=O)NNC(=O)c1ccc(F)c2c(C(=O)C(=O)N3CCN(C(=O)c4ccccc4)CC3)c[nH]c12 [Example 135] | < 1000 | 
21 | COc1nc(-c2ccc(F)c3c(C(=O)C(=O)N4CCN(C(=O)c5ccccc5)CC4)c[nH]c23)no1 [Example 29] | < 1000 | > 98

Row | SMILES | EC50 [nM] | inhibition at 10 µM [%]
22 | O=C(O)c1cc(-c2ccc(F)c3c(C(=O)C(=O)N4CCN(C(=O)c5ccccc5)CC4)c[nH]c23)[nH]n1 [Example 88] | < 1000 | 
23 | Nc1nc(-c2ccc(F)c3c(C(=O)C(=O)N4CCN(C(=O)c5ccccn5)CC4)c[nH]c23)no1 [Example 189] | < 1000 | 
24 | O=C(C(=O)N1CCN(C(=O)c2ccccc2)CC1)c1c[nH]c2c(-c3cnco3)ccc(F)c12 [Example 17] | < 1000 | > 98
25 | O=C(C(=O)N1CCN(C(=O)c2ccccc2)CC1)c1c[nH]c2c(-c3ccc(Cl)s3)ccc(F)c12 [Example 16] | < 1000 | > 98
26 | C[C@@H]1CN(C(=O)c2ccccn2)CCN1C(=O)C(=O)c1c[nH]c2c(-c3nn[nH]n3)ccc(F)c12 [Example 34] | < 1000 | > 98
27 | O=C(C(=O)N1CCN(C(=O)c2ccccc2)CC1)c1c[nH]c2c(-c3n[nH]c(CCl)n3)ccc(F)c12 [Example 194] | < 1000 | 
28 | C[C@@H]1CN(C(=O)c2ccccn2)CCN1C(=O)C(=O)c1c[nH]c2c(-c3ncon3)ccc(F)c12 [Example 192] | < 1000 | 
29 | O=C(C(=O)N1CCN(C(=O)c2ccccc2)CC1)c1c[nH]c2c(-c3ccccn3)ccc(F)c12 [Example 5] | < 1000 | > 98
30 | O=C(Nc1ccncc1)c1ccc(F)c2c(C(=O)C(=O)N3CCN(C(=O)c4ccccc4)CC3)c[nH]c12 [Example 39] | < 1000 | > 98
31 | CC(C)(C)OC(=O)N1CCN(C(=O)C(=O)c2c[nH]c3c(/C(N)=N/O)ccc(F)c23)CC1 [Example 121] | < 1000 | 
32 | COc1ccc(-c2ccccn2)c2[nH]cc(C(=O)C(=O)N3CCN(C(=O)c4ccccc4)CC3)c12 [Example 7] | < 1000 | > 98
33 | O=C(C(=O)N1CCN(C(=O)c2ccccc2)CC1)c1c[nH]c2c(-c3cncn3Cc3ccccc3)ccc(F)c12 [Example 84] | < 1000 | 
34 | C[C@@H]1CN(C(=O)c2ccccc2)CCN1C(=O)C(=O)c1c[nH]c2c(C(=O)NCCN3CCOCC3)ccc(F)c12 [Example 177] | < 1000 | 
35 | O=C(C(=O)N1CCN(C(=O)c2ccccc2)CC1)c1c[nH]c2c(/C=N/O)ccc(F)c12 [Example 30] | < 1000 | > 98
36 | O=C(NCCc1c[nH]cn1)c1ccc(F)c2c(C(=O)C(=O)N3CCN(C(=O)c4ccccc4)CC3)c[nH]c12 [Example 49] | < 1000 | > 98
37 | CCOC(=O)c1cc(-c2ccc(F)c3c(C(=O)C(=O)N4CCN(C(=O)c5ccccc5)CC4)c[nH]c23)on1 [Example 87] | < 1000 | 
38 | CC(C)(C)OC(=O)N1C=NNC(c2ccc(F)c3c(C(=O)C(=O)N4CCN(C(=O)c5ccccc5)CC4)c[nH]c23)=N1 [Example 132] | < 1000 | 
39 | O=C(O)c1cc(-c2ccc(F)c3c(C(=O)C(=O)N4CCN(C(=O)c5ccccc5)CC4)c[nH]c23)on1 [Example 90] | < 1000 | 
40 | O=C(NCCc1c[nH]c2ccccc12)c1ccc(F)c2c(C(=O)C(=O)N3CCN(C(=O)c4ccccc4)CC3)c[nH]c12 [Example 48] | < 1000 | > 98
41 | O=C(C(=O)N1CCN(C(=O)c2ccccc2)CC1)c1c[nH]c2c(-c3cncnc3)ccc(F)c12 [Example 9] | < 1000 | > 98
42 | CCn1nnc(-c2ccc(F)c3c(C(=O)C(=O)N4CCN(C(=O)c5ccccc5)CC4)c[nH]c23)n1 [Example 23] | < 1000 | > 98

Row | SMILES | EC50 [nM] | inhibition at 10 µM [%]
43 | O=C(C(=O)N1CCN(C(=O)c2c(F)cccc2F)CC1)c1c[nH]c2c(-c3ncon3)ccc(F)c12 [Example 150B] | < 1000 | 
44 | O=C(C(=O)N1CCN(C(=O)c2ccccc2)CC1)c1c[nH]c2c(C(=O)N3CCN(C(=O)c4ccccc4)CC3)ccc(F)c12 [Example 69] | < 1000 | > 98
45 | O=C(O)CO/N=C/c1ccc(F)c2c(C(=O)C(=O)N3CCN(C(=O)c4ccccc4)CC3)c[nH]c12 [Example 31] | < 1000 | > 98
46 | NC(=O)c1nc(-c2ccc(F)c3c(C(=O)C(=O)N4CCN(C(=O)c5ccccc5)CC4)c[nH]c23)no1 [Example 103] | < 1000 | 
47 | O=C(C(=O)N1CCN(C(=O)c2ccccc2)CC1)c1c[nH]c2c(C3=NCCN3)ccc(F)c12 [Example 163] | < 1000 | 
48 | O=C(Nc1nn[nH]n1)c1ccc(F)c2c(C(=O)C(=O)N3CCN(C(=O)c4ccccc4)CC3)c[nH]c12 [Example 54] | < 1000 | > 98
49 | C[C@@H]1CN(C(=O)c2ccccc2)CCN1C(=O)C(=O)c1c[nH]c2c(-c3noc(NC4CCC4)n3)ccc(F)c12 [Example 161] | < 1000 | 
50 | COCCNC(=O)c1ccc(F)c2c(C(=O)C(=O)N3CCN(C(=O)c4ccccc4)CC3)c[nH]c12 [Example 152] | < 1000 | 
51 | O=C(C(=O)N1CCN(C(=O)c2ccccc2)CC1)c1c[nH]c2c(-c3nnc(C(Cl)(Cl)Cl)o3)ccc(F)c12 [Example 193] | < 1000 | 
52 | COc1ccc(/C=N/O)c2[nH]cc(C(=O)C(=O)N3CCN(C(=O)c4ccccc4)CC3)c12 [Example 124] | < 1000 | 
53 | O=C(C(=O)N1CCN(C(=O)c2ccccn2)CC1)c1c[nH]c2c(-c3nn[nH]n3)ccc(F)c12 [Example 32] | < 1000 | > 98
54 | C[C@@H]1CN(C(=O)c2ccccc2)CCN1C(=O)C(=O)c1c[nH]c2c(-c3noc(NCCN4CCOCC4)n3)ccc(F)c12 [Example 159] | < 1000 | 
55 | CC(=O)Nc1nc(-c2ccc(F)c3c(C(=O)C(=O)N4CCN(C(=O)c5ccccc5)CC4)c[nH]c23)no1 [Example 96] | < 1000 | 
56 | O=C(C(=O)N1CCN(C(=O)c2ccccc2)CC1)c1c[nH]c2c(-n3cccn3)ccc(F)c12 [Example 116] | < 1000 | 
57 | COc1ccc(C(N)=O)c2[nH]cc(C(=O)C(=O)N3CCN(C(=O)c4ccccc4)CC3)c12 [Example 148] | < 1000 | 
58 | C[C@@H]1CN(C(=O)c2ccccn2)CCN1C(=O)C(=O)c1c[nH]c2c(-c3noc(N)n3)ccc(F)c12 [Example 190] | < 1000 | 
59 | O=C(C(=O)N1CCN(C(=O)c2ccccc2)CC1)c1c[nH]c2c(-c3noc(=O)[nH]3)ccc(F)c12 [Example 28] | < 1000 | > 98
60 | CC(C)(C)OC(=O)NCCNC(=O)c1ccc(F)c2c(C(=O)C(=O)N3CCN(C(=O)c4ccccc4)CC3)c[nH]c12 [Example 153] | < 1000 | 
61 | O=C(C(=O)N1CCN(C(=O)c2ccccc2)CC1)c1c[nH]c2c(-c3nn[nH]n3)ccc(F)c12 [Example 20] | < 1000 | > 98
62 | C[C@@H]1CN(C(=O)c2ccccc2)CCN1C(=O)C(=O)c1c[nH]c2c(C(=O)N(C)C)cccc12 [Example 65] | < 1000 | 70
